Active and inactive are the calls of the source. The calls are words filed in the database; no cut-off is given here.
Experiments:
[1] = molecular target: T1, Estrogen receptor (Homo sapiens) (UniProt P03372); assay: Induction of ERalpha degradation in human MCF7 cells assessed as ERalpha level at 3 uM measured after 24 hrs in presence of chloroquine by Western blot analysis; assay type: cell-based
T1 sequence (whole entry): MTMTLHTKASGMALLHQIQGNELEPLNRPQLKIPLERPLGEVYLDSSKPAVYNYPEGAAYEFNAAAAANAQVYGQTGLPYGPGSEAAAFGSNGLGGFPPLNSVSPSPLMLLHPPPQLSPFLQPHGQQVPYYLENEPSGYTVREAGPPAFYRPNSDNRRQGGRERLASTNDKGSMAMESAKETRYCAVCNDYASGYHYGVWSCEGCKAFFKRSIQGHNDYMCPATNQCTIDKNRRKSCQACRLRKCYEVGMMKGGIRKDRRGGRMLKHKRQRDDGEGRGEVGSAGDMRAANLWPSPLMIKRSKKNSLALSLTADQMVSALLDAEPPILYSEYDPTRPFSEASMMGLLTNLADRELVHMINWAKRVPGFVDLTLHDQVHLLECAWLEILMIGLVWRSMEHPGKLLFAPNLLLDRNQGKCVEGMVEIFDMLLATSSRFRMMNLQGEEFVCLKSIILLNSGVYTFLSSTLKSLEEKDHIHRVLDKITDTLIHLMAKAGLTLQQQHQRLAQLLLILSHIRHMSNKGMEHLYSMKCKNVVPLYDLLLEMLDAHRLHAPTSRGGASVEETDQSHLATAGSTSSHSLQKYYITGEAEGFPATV

[2] = molecular target: T2, Progesterone receptor (Homo sapiens) (UniProt P06401); assay: Induction of progesterone receptor degradation in human MCF7 cells assessed as decrease in PR level at 1 uM incubated for 24 hrs by Western blot analysis; assay type: cell-based
T2 sequence (whole entry): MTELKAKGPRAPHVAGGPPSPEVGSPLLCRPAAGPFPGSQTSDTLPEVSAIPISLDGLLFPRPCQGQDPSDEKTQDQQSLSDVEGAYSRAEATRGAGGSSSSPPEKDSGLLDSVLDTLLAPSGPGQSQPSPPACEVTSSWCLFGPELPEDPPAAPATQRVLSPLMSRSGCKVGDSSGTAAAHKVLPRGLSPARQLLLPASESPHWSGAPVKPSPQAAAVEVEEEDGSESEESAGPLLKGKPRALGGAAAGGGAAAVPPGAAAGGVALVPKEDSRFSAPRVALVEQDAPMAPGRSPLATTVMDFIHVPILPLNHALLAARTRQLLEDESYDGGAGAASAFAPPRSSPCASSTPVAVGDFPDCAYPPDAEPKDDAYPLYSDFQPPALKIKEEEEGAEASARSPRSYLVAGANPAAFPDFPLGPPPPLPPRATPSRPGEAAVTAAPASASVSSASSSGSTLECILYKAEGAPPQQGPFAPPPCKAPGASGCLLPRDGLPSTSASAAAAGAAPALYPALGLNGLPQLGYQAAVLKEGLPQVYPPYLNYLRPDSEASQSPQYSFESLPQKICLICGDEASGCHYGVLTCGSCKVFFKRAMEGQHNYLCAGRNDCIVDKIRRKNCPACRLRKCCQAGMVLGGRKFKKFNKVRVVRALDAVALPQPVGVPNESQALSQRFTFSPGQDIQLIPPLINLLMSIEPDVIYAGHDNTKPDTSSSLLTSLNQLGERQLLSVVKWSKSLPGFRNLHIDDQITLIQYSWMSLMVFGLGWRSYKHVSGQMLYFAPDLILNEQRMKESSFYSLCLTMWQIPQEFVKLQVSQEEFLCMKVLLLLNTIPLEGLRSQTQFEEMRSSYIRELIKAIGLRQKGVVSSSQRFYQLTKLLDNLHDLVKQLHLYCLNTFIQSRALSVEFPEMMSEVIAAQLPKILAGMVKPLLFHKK

[3] = Metabolic stability in rat liver microsomes assessed as assessed as intrinsic clearance incubated for 60 mins in presence of NADPH by UPLC-MS analysis; assay type: ADME, Microsome; settings: read-out: CLH
MCF7 [4] = assay: Induction of apoptosis in human MCF7 cells assessed as increase in cytochrome C protein level at 0.5 to 3 uM and measured after 24 hrs Western blot analysis relative to control; assay type: functional, cell-based; settings: dose 0.5-3 µM
MCF7 [5] = assay: Induction of apoptosis in human MCF7 cells assessed as early apoptotic cells at 1 uM incubated for 24 hrs by annexin-V and PI staining based flow cytometry analysis relative to control; assay type: functional
MCF7 [6] = assay: Antiproliferative activity against human MCF7/ADR cells assessed as reduction in cell viability after 48 hrs by MTT assay; assay type: functional, cell-based; settings: MCF7, 48 h
MCF7 [7] = assay: Induction of apoptosis in human MCF7 cells assessed as increase in cleaved caspase 9 level at 0.5 to 3 uM and measured after 24 hrs Western blot analysis relative to control; assay type: functional, cell-based; settings: dose 0.5-3 µM
MCF7 [8] = assay: Cell cycle arrest in human MCF7 cells assessed as accumulation at G1 phase at 0.5 uM measured after 24 hrs by propidium iodide staining based flow cytometry (reference value: 73.45 %); assay type: functional
MCF7 [9] = assay: Induction of ROS generation in human MCF7 cells assessed as increase in intracellular ROS level measured after 24 hrs preincubated with NAC by DCFH-DA staining based flow cytometry method; assay type: functional, cell-based
[10] = molecular target: T1, Estrogen receptor (Homo sapiens); assay: Induction of ERalpha degradation in human MCF7 cells assessed as decrease in ERalpha protein expression at 1 uM incubated for 24 hrs by Western blot analysis; assay type: cell-based
MCF7 [11] = assay: Antiproliferative activity against human MCF7 cells assessed as reduction in cell viability after 48 hrs by MTT assay; assay type: functional, cell-based; settings: MCF7, 48 h
MCF7 [12] = assay: Cell cycle arrest in human MCF7 cells assessed as accumulation at G1 phase at 2 uM measured after 24 hrs by propidium iodide staining based flow cytometry (reference value: 73.45 %); assay type: functional
[13] = molecular target: T1, Estrogen receptor (Homo sapiens); assay: Induction of ERalpha degradation in human MCF7 cells assessed as decrease in ERalpha protein expression at 3 uM measured upto 24 hrs by Western blot analysis; assay type: cell-based; settings: time hrs <=24, TDE = time-dependent effect
MCF7 [14] = assay: Induction of apoptosis in human MCF7 cells assessed as early apoptotic cells at 2 uM incubated for 24 hrs by annexin-V and PI staining based flow cytometry analysis relative to control; assay type: functional
MCF7 [15] = assay: Induction of apoptosis in human MCF7 cells assessed as increase in Bax protein level at 0.5 to 3 uM and measured after 24 hrs Western blot analysis relative to control; assay type: functional, cell-based; settings: dose 0.5-3 µM
MCF7 [16] = assay: Induction of mitochondrial membrane potential loss in human MCF7 cells at 2 uM measured after 24 hrs by JC-1 staining based flow cytometry; assay type: functional, cell-based
MDA-MB-231 = assay: Antiproliferative activity against human MDA-MB-231 cells assessed as reduction in cell viability after 48 hrs by MTT assay; settings: MDA-MB-231, 48 h
MCF7 [17] = assay: Induction of mitochondrial membrane potential loss in human MCF7 cells measured after 24 hrs by JC-1 staining based flow cytometry; assay type: functional, cell-based
[18] = Resistance index, ratio of IC50 for antiproliferative activity against human MCF7/ADR cells to IC50 for antiproliferative activity against human MCF7 cells; assay type: functional
MCF7 [19] = assay: Induction of apoptosis in human MCF7 cells assessed as early apoptotic cells at 0.5 uM incubated for 24 hrs by annexin-V and PI staining based flow cytometry analysis relative to control; assay type: functional

Compound: CC1=CC(=O)[C@H]2/C(C=O)=C\C[C@H]3[C@@H]([C@@H](C)/C=C\C=C/C(=O)OCCOCCOCCOC(=O)CC45CC6CC(CC(C6)C4)C5)CC[C@]3(C)C[C@H]12
- Activity [1]: Active
- Activity [2]: inactive
- microsomal CLint [3]: 17.8 µL/min/mg
- Activity (MCF7 [4]): Active
- Activity (MCF7 [5]): 14.1%
- IC50 (MCF7 [6]): 0.48 µM
- Activity (MCF7 [7]): Dose-Dependent Effect
- Activity (MCF7 [8]): 74.77%
- Activity (MCF7 [9]): inactive
- Activity [10]: Active
- IC50 (MCF7 [11]): 0.41 µM
- Activity (MCF7 [12]): 87.85%
- Activity [13]: Tde
- Activity (MCF7 [14]): 32.3%
- Activity (MCF7 [15]): Active
- Activity (MCF7 [16]): Active
- IC50 (MDA-MB-231): 0.31 µM
- Activity (MCF7 [17]): Active
- Ratio IC50 [18]: 1.17
- Activity (MCF7 [19]): 6.9%
